Source: US12414958B2, “Medicament and use thereof for treating bacterial infections involving biofilm” (Debiopharm International S.A., priority 2019, dated 2025)
“And” between values parts separate entries of the source, which are not always exact repeats. Equal values may be shown once.

Tested on: S. aureus ATCC 43300 (MRSA)
Assay: Mouse tissue cage model of MRSA infection, 5.5-day treatment (Example 2)
Format: in vivo, Staphylococcus aureus
Details: for Cure rate (%) / adherent bacteria reduction from baseline (mean±SD): 24-h biofilm; for Cure rate (%) / Planktonic day 3 Δlog (individual animal) / adherent bacteria reduction from baseline (mean±SD): 5.5-day treatment; for Cure rate (%): cages without growth / total cages; for Adherent Mean / Adherent Δlog (individual animal): medium after sonication of explanted tissue cages, day 9 vs day 1; for Adherent Mean: group mean; for day on which bactericidal effect (mean reduction of bacterial load by ≥3 Log10) on planktonic bacteria was exerted: planktonic bacteria in tissue cage fluid, time points day 3, 6, 9; for Planktonic day 3 Mean / Planktonic day 6 Mean / Planktonic day 9 Mean / Planktonic day 3 Δlog (individual animal) / Planktonic day 9 Δlog (individual animal) / Planktonic day 6 Δlog (individual animal): tissue cage fluid; for Planktonic day 3 Mean / Planktonic day 6 Mean / Planktonic day 9 Mean: group mean Δlog from baseline (day 1); for Planktonic day 3 Δlog (individual animal) / Planktonic day 9 Δlog (individual animal) / Planktonic day 6 Δlog (individual animal): reduction from baseline (day 1); for Planktonic day 3 Δlog (individual animal): C57BL/6 mice; for Planktonic day 9 Δlog (individual animal): 3 days after end of treatment; for adherent bacteria reduction from baseline (mean±SD): n=3, given as positive reduction
Text: The purpose of this study was to evaluate the efficacy of Debio 1450 BES alone and in combination with Daptomycin (DAP) in the mouse tissue cage model of implant-associated infections caused by methicillin resistant Staphylococcus (S.) aureus (MRSA). The efficacy against 24-h biofilm of S. aureus ATCC 43300 (MRSA) was investigated and compared to the standard of care combination of rifampicin (RIF) and DAP at the human equivalent doses. Employing a small initial inoculum (ca. 300 CFU/cage) together with a 24-h biofilm allowed to simulate clinical settings of an acute implant infection and/or surgical debridement.
The tissue cage model of prosthetic joint infections is very well-established and closely mimics the human prosthetic joint infections. This model is based on subcutaneous insertion of tissue cages followed by experimental infection of the foreign body by injection of bacterial inoculum into the cages.
In brief, one sterile polytetrafluorethylene (Teflon) cylinder (32×10 mm), perforated by 130 regularly spaced holes of 1 mm diameter (tissue cages; Angst-Pfister AG, Zürich) was aseptically implanted subcutaneously into the back of C57BL/6 mice (minimum weight 20 g). Experiments were started after complete wound healing (minimum 2 weeks after surgery). For the efficacy study presented here the cages in all animals were infected with around 300 colony-forming units (CFU) of the MRSA strain ATCC 43300 per cage and the biofilm were developed for 24 h before the beginning of the treatment.
The animals received antibiotic treatment i.p. (Debio 1450 BES and DAP) or sc (RIF) on day 1, 2, 3, 4, 5, and 6 (only the morning administration on day 6). One group received only 5% glucose and served as infected, untreated control group (vehicle). […] Debio 1450 and vehicle were administered bid, and qdam on day 6. DAP and RIF were administered qdam. The 50 mg/kg dose of Debio 1450 BES was selected as the HED. The DAP dose of […] was chosen as it closely correlates with the human clinical dosage of 10 mg/kg once daily. The RIF dose of 25 mg/kg is among the most commonly used in the treatment of experimental biofilm infections.
Five to 6 days before infection, TCF is aspirated to ascertain the sterility of implanted cages by TCF plating on blood agar plates. […] In addition, the number of bacteria in TCF was determined on day 3 (before the first injection that day), on day 6 (before last treatment), and on day 9 (before explantation of the cages) to evaluate the treatment efficacy against planktonic bacteria. The mouse number and bacterial count for the given cage were reported to analyse the time course of antibacterial activity of the tested drugs. The efficacy against biofilm-embedded bacteria was assessed qualitatively and quantitatively following aseptic explantation of the tissue cages 3 days after the completion of treatment. The 3 days of resting period will help to avoid the antibiotic carryover effect. Upon explantation, cages were washed twice with phosphate buffered saline (PBS) (Lot #5060914) and immediately transferred into 5 mL 0.9% NaCl (Lot #L161619 or L162658). Following 30 s vortexing, sonication (3 min at 130 W), and an additional 30 s vortexing step the numbers of bacteria dispersed from biofilm was determined by plating. The sonicated cages were washed once with PBS, transferred into 5 mL TSB (Lot #0286463), and incubated for 48 h at 37° C., with an additional vortexing step after 24 h of incubation. After the incubation, tubes were vortexed again and bacterial regrowth was assessed visually. In addition, 100 μL of each culture was plated on blood agar plates to ascertain the regrowth. A positive culture was defined as a treatment failure. The efficacy of treatment against adherent bacteria is expressed as the cure rate (in percent), defined as the number of cages without growth divided by the total number of cages in the individual treatment group.

Row | Structure (SMILES) | Cure rate (%) | Adherent Mean [log 10 CFU/mL] | Adherent Δlog (individual animal) (listed as DAP) | day on which bactericidal effect (mean reduction of bacterial load by ≥3 Log10) on planktonic bacteria was exerted [day] | Planktonic day 3 Mean [Log10] | Planktonic day 6 Mean [Log10] | Planktonic day 9 Mean [Log10] | Planktonic day 3 Δlog (individual animal) (listed as DAP) | Planktonic day 9 Δlog (individual animal) (listed as DAP) | Planktonic day 6 Δlog (individual animal) (listed as DAP) | adherent bacteria reduction from baseline (mean±SD) [log 10 CFU/mL] | Adherent Δlog (individual animal) | Planktonic day 6 Δlog (individual animal) | Planktonic day 3 Δlog (individual animal) | Planktonic day 9 Δlog (individual animal) | Planktonic day 3 Δlog (individual animal) (listed as RIF) | Planktonic day 9 Δlog (individual animal) (listed as RIF) | Planktonic day 6 Δlog (individual animal) (listed as RIF)
1 | CCCCCCCCCC(=O)N[C@@H](Cc1c[nH]c2ccccc12)C(=O)N[C@H](CC(N)=O)C(=O)N[C@@H](CC(=O)O)C(=O)N[C@@H]1C(=O)NCC(=O)N[C@@H](CCCN)C(=O)N[C@@H](CC(=O)O)C(=O)N[C@H](C)C(=O)N[C@@H](CC(=O)O)C(=O)NCC(=O)N[C@H](CO)C(=O)N[C@@H]([C@H](C)CC(=O)O)C(=O)N[C@@H](CC(=O)c2ccccc2N)C(=O)O[C@@H]1C [Daptomycin] | 33 | −3.91 | −4.48 log 10 CFU/mL (2×) and −2.78 log 10 CFU/mL | 3 | −3.10 | −4.91 | −3.60 | −2.41 Log10 and −4.79 Log10 and −0.67 Log10 and −5.15 Log10 and −2.91 Log10 and −2.70 Log10 | −1.07 Log10 and −4.79 Log10 and 0.73 Log10 and −5.15 Log10 and −5.95 Log10 and −5.38 Log10 | −5.72 Log10 and −4.79 Log10 and −2.46 Log10 and −5.15 Log10 and −5.95 Log10 and −5.38 Log10 |  |  |  |  |  |  |  | 
2 | Cc1c(CN(C)C(=O)/C=C/c2cnc3c(c2)CCC(=O)N3COP(=O)(O)O)oc2ccccc12 [Debio 1450, {6-[(1E)-3-{methyl [(3-methyl-1-benzofuran-2-yl)methyl]amino}-3-oxoprop-1-en-1-yl]-2-oxo-3,4-dihydro-1,8-naphthyridin-1 (2H)-yl} methyl dihydrogen phosphate] | 50 | −3.81 |  | 6 | −2.62 | −4.45 | −3.90 |  |  |  | 3.81±1.15 | −4.48 log 10 CFU/mL (2×) and −2.48 log 10 CFU/mL | −3.24 Log10 and −2.69 Log10 and −5.64 Log10 and −5.10 Log10 and −4.91 Log10 and −5.09 Log10 | −1.42 Log10 and −1.40 Log10 and −2.10 Log10 and −5.10 Log10 and −1.93 Log10 and −3.79 Log10 | −5.85 Log10 and −3.41 Log10 and −1.32 Log10 and −5.10 Log10 and −4.91 Log10 and −2.79 Log10 |  |  | 
3 | CO[C@H]1/C=C/O[C@@]2(C)Oc3c(C)c(O)c4c(O)c(c(/C=N/N5CCN(C)CC5)c(O)c4c3C2=O)NC(=O)/C(C)=C\C=C\[C@H](C)[C@H](O)[C@@H](C)[C@@H](O)[C@@H](C)[C@H](OC(C)=O)[C@@H]1C [Rifampicin] | 100 | −3.37 |  | 3 | −4.53 | −4.53 | −4.53 |  |  |  | 3.37±0 | −3.4 log 10 CFU/mL |  |  |  | −4.08 Log10 and −6.73 Log10 and −3.5 Log10 and −3.4 Log10 and −4.9 Log10 | −4.08 Log10 and −6.73 Log10 and −3.5 Log10 and −3.4 Log10 and −4.9 Log10 | −4.08 Log10 and −6.73 Log10 and −3.5 Log10 and −3.4 Log10 and −4.9 Log10
